pEC50: −log10 of the molar value. Where “and” joins values, the source holds several entries; their conditions need not be identical. Equal entries are not always repeated. Marks after values point to notes of the source that are not given here.

In series [1] the test system is human immunodeficiency virus type 1 (HIV-1). Description: microbe, parasite or virus in culture. It is filed as cell-based. Conditions: Human immunodeficiency virus 1, HeLa, 48 h, HIV-1 luciferase reporter, HeLa cells, 48 hours after infection. For orientation: Reporter assays use an easily measured gene product as a stand-in for the process of interest.
The nature of series [2]: Microsomal incubation (Method 1), human. It is filed as in vitro ADME. Conditions: human liver microsomes, compound 10 μM, 1 mg protein/mL, NADPH 1 mM, 60 minutes at 37° C. How it is done:
(§1) Compound (10 μM) was incubated with rat, dog, cynomolgus monkey, and human liver microsomes (1 mg protein/mL) in a final volume of 1 mL in 2-mL Eppendorf tubes. The mixture containing enzymes, potassium phosphate buffer (100 mM, pH 7.4), and the compound was pre-incubated at 37° C. for 3 min. The reaction was initiated by the addition of NADPH (final concentration of 1 mM) and incubated for 60 minutes at 37° C. The reaction was terminated by the addition of 1 mL of acetonitrile. After centrifugation at 12000 rpm for 3 minutes, the supernatant was subjected to 15 minutes of concentration (N2 flow, 32° C.). The resulting final extract was transferred to clean vials and analyzed by HPLC.
On the technique in general: Liver microsomes are vesicles of endoplasmic reticulum, rich in cytochrome P450 enzymes.

Series [3] can be described thus: Microsomal incubation (Method 1), dog. It is filed as in vitro ADME. Particulars: dog liver microsomes; compound 10 μM, 1 mg protein/mL, NADPH 1 mM, 60 minutes at 37° C. Here is the method: as §1
Series [4] can be described thus: Microsomal incubation (Method 1), monkey. It is filed as in vitro ADME. Conditions: cynomolgus monkey liver microsomes; compound 10 μM, 1 mg protein/mL, NADPH 1 mM, 60 minutes at 37° C. Here is the method: as §1
Series [5] can be described thus: Microsomal incubation (Method 1), rat. It is filed as in vitro ADME. Particulars: rat liver microsomes; compound 10 μM, 1 mg protein/mL, NADPH 1 mM, 60 minutes at 37° C. Here is the method: as §1
The nature of series [6]: Hepatocytes incubation (Method 1), human. It is filed as in vitro ADME. Conditions: compound 10 μM, 37° C., 2 hrs. Here is the method:
(§2) Cryopreserved hepatocytes were thawed in a water bath at 37° C. and transferred to a 50-mL tube containing 45 mL of pre-warmed incubation medium (In VitroGRO HT medium). The tube was inverted 3 times to ensure resuspension of hepatocytes and centrifuged at 50 g at room temperature for 5 minutes. The supernatant was decanted without disturbing the pellet. The pellet of hepatocytes was resuspended in 1 mL of William's E medium and the viable cell counting was determined by the tryptan blue exclusion method.
(§3) The William's E medium was added to the suspension of the hepatocytes pellet to make a final density of 2 million cells/mL. Stock solution of the compound was prepared at the concentration of 1 mM and diluted to 10 μM with William's E medium. The culture plate was incubated at 37° C. under 5% carbon dioxide and 95% air atmosphere for 2 hrs. The metabolic reaction was terminated by transferring the contents of the well into a centrifuge tube containing 1 mL of 0.1% TFAA acetonitrile solution and then vortexing. After centrifugation, the supernatant was subjected to 15 minute of concentration (N2 flow, 32° C.). The resulted final extract was transferred to clean vials for HPLC analysis.

Series [7] can be described thus: Hepatocytes incubation (Method 1), monkey. It is filed as in vitro ADME. Conditions: compound 10 μM, 37° C., 2 hrs. Here is the method: as §2, §3
Series [8] in a line: Hepatocytes incubation (Method 1), rat. It is filed as in vitro ADME. Particulars: compound 10 μM, 37° C., 2 hrs. How it is done: as §2, §3
Series [9] can be described thus: Hepatocyte stability (Example 36), rat. Particulars: rat hepatocytes 1 million cells/mL, 37° C., 4 hours, LC-MS/MS.
A short description of series [10]: Hepatocyte stability (Example 36), human. Particulars: human hepatocytes 1 million cells/mL, 37° C., 4 hours, LC-MS/MS.
[11] abbreviates: CYP3A4 activity 3800 (pmol/mg protein).

Consider `COc1nc2c(cc1Cc1cccc(Cl)c1F)c(=O)c(C(=O)O)cn2[C@H](CO)C(C)C` [Example 1A, 6-(3-Chloro-2-fluoro-benzyl)-1-((S)-1-hydroxymethyl-2-methyl-propyl)-7-methoxy-4-oxo-1,4-dihydro-[1,8]naphthyridine-3-carboxylic acid], for which the pEC50 in [1] is above 8.00. Besides, the “% Remaining, Human, Microsome” value in [2] (setting [11]) was 101% and 96.1%; in series [2] (CYP3A4 activity 7800 (pmol/mg protein)), 83.5%. In [3], the “% Remaining, Dog, Microsome” value amounted to 102%. Besides, the “% Remaining, Monkey, Microsome” value in series [4] was found to be 66.3%. For the same compound, in series [5], the “% Remaining, Rat, Microsome” value was 38.1%. In addition, in series [6], the “% Remaining, Human, Hepatocyte” value was found to be 89.6%. For the same compound, in [7], the “% Remaining, Monkey, Hepatocyte” value came out at 72.3%. In series [8], the “% Remaining, Rat, Hepatocyte” value is on record as 66.9%.

Turning to `COc1cc2c(cc1Cc1cccc(Cl)c1F)c(=O)c(C(=O)O)cn2[C@H](CO)C(C)C` [Example 30A, reference compound], the “% Remaining, Human, Microsome” value in series [2] (setting [11]) was 40.5 (3800)* NA %. The “% Remaining, Dog, Microsome” value in [3] is reported as 83.8 NA %. The “% Remaining, Monkey, Microsome” value in series [4] was 4.1 NA %. Moreover, in [5], the “% Remaining, Rat, Microsome” value came out at 6.7 NA %. Moreover, the “% Remaining (rat)” value in [9] is 29%. Besides, the “% Remaining (human)” value in series [10] stood at 54%.

Turning to `Cc1nnc(C(=O)NC(C)(C)c2nc(C(=O)NCc3ccc(F)cc3)c(O)c(=O)n2C)o1` [Raltegravir, raltegravir, reference compound], in [3], the “% Remaining, Dog, Microsome” value turned out to be 91.8%. In addition, the “% Remaining, Monkey, Microsome” value in series [4] was 94.7%. In [5], the “% Remaining, Rat, Microsome” value is listed as 105%. For the same compound, the “% Remaining, Human, Hepatocyte” value in series [6] came to 32.4%. Further, the “% Remaining, Monkey, Hepatocyte” value in series [7] stood at 20.0%. In series [8], the “% Remaining, Rat, Hepatocyte” value is 43.3%.

By pEC50 is commonly meant the EC50 on a negative log10 scale, so that one unit is a factor of ten.

The values are drawn from patent US20110166123A1, “NOVEL COMPOSITIONS AND METHODS OF USE” (priority 2008, published 2011).
